Bridge positions count the residues as written; N and C are the ends. Ends that are not written are not given here. I, II: the chains in the order shown.
Tests used:
[1] = test system: HA-mediated cell-cell fusion (pH7N7-HA); conditions: 125 µg mL^−1, 293T cells, pH 5.0, Fig. 2b
rhinovirus A1 [2] = assay: Rhinovirus A1 in H1-Hela cells; assay type: cell-based; conditions: 4H30 25 μg mL^−1, viral RNA copies in cells at 16 hpi, Fig. S6a
Experimental: (§1) Fig. S6. […] H1-Hela cells are the standard cell model for efficient Rhinovirus A16 (RV-A16) replication. RV-A1 (a) or RV-A16 (b) was treated with 4H30 (25 μg mL^−1) for one hour of infection and then the infectious media were replaced with MEM with 4H30 for viral culture. Viral RNA copies in cells were measured at 16 hpi. Virus in MEM was the control. No viral infection was the mock control. Data are presented as mean ± SD of indicated biological samples.

A(H1N1)pdm09 virus = test system: A(H1N1)pdm09 virus; set-up: species or system BALB/c mice; conditions: mouse, in vivo
[3] = mouse, in vivo; cited from earlier work
NA = assay: ELISA binding assay, NA; set-up: species or system influenza virus; conditions: 4H30 1 µg coated, NA 100 ng, anti-His antibody, Fig. 2a
Experimental: Peptides (1.0 µg per well) were dissolved in H2O. Influenza HA, NA (Sino, Cat^# 11058-V07B), or LDLR (Sino, Cat^# 10231-H081-50, 100 ng) dissolved in PBS was coated onto ELISA plates, incubated at 4°C overnight, and blocked with BSA at 4°C overnight. HA or VP1 was added to wells for binding and then determined by incubation with goat anti-His-HRP (Invitrogen, Cat^# R93125, 1: 2,000) at 37°C for 30 min. The reaction was developed by adding 100 µL of the TMB single solution (Life Technologies, Cat^# 002023) for 15 min at 37°C and stopped with 50 µL of 1 M H2SO4. Readings were obtained in an ELISA plate reader (Victor 1420 Multilabel Counter; PerkinElmer) at 450 nm.

MDCK cells = assay: Cytotoxicity MTT assay in MDCK cells; assay type: cell-based, canine; conditions: 24 h incubation, Fig. 1f
Experimental: Cytotoxicity of peptides was determined by detecting 50% cytotoxic concentration (CC50) using a tetrazolium-based colorimetric MTT assay ([27]). Cells were seeded in a 96-well cell culture plate at an initial density of 4 × 10^4 cells per well in MEM, supplemented with 10% FBS and incubated overnight. Cell culture media were removed, and then MEM supplemented with various concentrations of peptides and 1% FBS was added to each well. After 24 h incubation at 37°C, the MTT solution (5 mg mL^−1, 10 µL per well) was added to each well for incubation at 37°C for 4 h. Then, 100 µL of 10% SDS in 0.01M HCl was added to each well. After further incubation at room temperature with shaking overnight, the plates were read at OD570 using the VictorTM X3 Multilabel Reader (PerkinElmer, USA). Cell culture wells without peptides were used as the experiment control, and the medium was a blank control.

H1N1 virus [4] = assay type: cell-based, influenza H1N1 virus
H1N1 virus [5] = assay: Plaque reduction assay, H1N1 in MDCK cells; assay type: cell-based, influenza A/Hong Kong/415742/2009 (H1N1); conditions: virus treated with 4H30 50 µg mL^−1, then diluted to 0.05 µg mL^−1 for plaque assay, Fig. 1e
Experimental: The antiviral activity of peptides was measured by plaque reduction assay. Briefly, peptides were dissolved in PBS or 20% PBS. Peptides (0.2-25.0 µg mL^−1) were premixed with H1N1 virus at room temperature. After 30 min of incubation, the peptide-virus mixture was transferred to MDCK cells for infection at 37°C. At 1 hpi, infectious media were removed, and then 1% low melting agar was added to cells. Cells were fixed using 4% formalin at 2–3 dpi. […] (0.1%) was added to cells for cell staining to count viral plaques.

rhinovirus A1 [6] = assay type: cell-based
rhinovirus A1 [7] = assay: Viral attachment assay, rhinovirus A1 on RD cells; assay type: cell-based; conditions: virus treated with 4H30, attachment at 4°C, Fig. 4d
Experimental: (§2) Viruses (H1N1 or rhinovirus A1) were treated with DMEM, 4H30 (25 µg mL^−1), or an influenza neutralization antibody at room temperature for 30 min and then added to cells for attachment at 4°C for 1 h. After washing the unbound virus, the attached virus on cells was measured by RT-qPCR. At least two experiments with biological duplication samples were included for each treatment.

H1N1 virus [8] = assay: Viral attachment assay, H1N1 on MDCK cells; assay type: cell-based, influenza H1N1 virus
Experimental: as §2
MDCK cells were treated by ChABC (Sigma, Cat^# C2905, 1 U mL^−1), Hase I–III (Sigma, Cat^# H3917, 100 mU mL^−1), and Hase II (Sigma, Cat^# H6515, 100 mU mL^−1) at 37°C for 2 h in the buffer according to the manufacturer’s instruction. After washing cells with PBS, MEM or 4H30 (25 µg mL^−1) was added to cells for 30 min incubation, and then cells were washed with PBS. H1N1 (MOI = 1.0) was added to cells for attachment at 4°C for 1 h. The unbound virus was washed with PBS. The concentration of the attached virus was measured by RT-qPCR.

rhinovirus A16 = assay: Rhinovirus A16 in H1-Hela cells; assay type: cell-based; conditions: 4H30 25 μg mL^−1, viral RNA copies in cells at 16 hpi, Fig. S6b
Experimental: as §1

I: GAICHPVFCPRRYKQIGTCGLPGTKCCKKPKK / II: GAICHPVFCPRRYKQIGTCGLPGTKCCKKPK / III: GAICHPVFCPRRYKQIGTCGLPGTKCCKKP / IV: GAICHPVFCPRRYKQIGTCGLPGTKCCKKP (amide I:31-IV:C, I:32-II:C, II:31-III:C; cysteines drawn unpaired) [4H30]
inhibition of HA-mediated cell-cell fusion induced by low pH [1]: did not effectively block HA-mediated cell-cell fusion | inhibition of rhinovirus A1 in H1-Hela cells (rhinovirus A1 [2]): inhibited rhinovirus A1 in H1-Hela cells | survival of mice after lethal H1N1 challenge (protected mice) (A(H1N1)pdm09 virus): 5/6 | body weight loss of H1N1-infected mice (A(H1N1)pdm09 virus; 0.5 mg/kg): significantly reduced body weight loss | viral loads in the lungs on day 2 post-infection (A(H1N1)pdm09 virus; 0.5 mg/kg): significantly inhibited H1N1 viral replication in mouse lungs | toxicity in mice [3]: without causing apparent toxicity | binding to NA (NA): not effectively bound to NA | cytotoxicity in MDCK cells (MDCK cells): did not show noticeable toxicity in MDCK cells | H1N1 entry into cells (H1N1 virus [4]): prevented viral entry into cells | antiviral activity after treating virus and 1,000-fold dilution (H1N1 virus [5]): displayed significant antiviral activity against the virus | RV-A1 replication, cells (1h-Pre) or virus (Pre-mix) treated before infection (rhinovirus A1 [6]): significantly inhibited viral replication when cells or viruses were treated with 4H30 before viral infection | RV-A1 replication, cells treated after infection (1h-Post and 2h-Post) (rhinovirus A1 [6]): showed reduced antiviral activity when cells were treated after viral infection | antiviral activity after treating rhinovirus and dilution (rhinovirus A1 [6]): did not show antiviral activity against rhinovirus | antiviral activity when added after virus attachment (4H30-Post) (rhinovirus A1 [6]): antiviral activity diminished when rhinovirus was attached to cells at 4 °C and was treated with 4H30 at 1 hpi | antiviral activity when present during viral infection (4H30-Pre) (rhinovirus A1 [6]): showed significant antiviral activity when treating virus during viral infection | rhinovirus attachment to RD cells (rhinovirus A1 [7]): reduced rhinovirus attachment to RD cells | H1N1 attachment to MDCK cells (H1N1 virus [8]; 4H30 25 µg mL^−1, attachment at 4°C, RT-qPCR, Fig. 1d): increased the viral attachment to cells | 4H30-induced increase in H1N1 attachment after removal of cellular GAGs (H1N1 virus [8]; MDCK cells treated with Hase and ChABC, 4H30 25 µg mL^−1, attachment at 4°C, Fig. 2d): significantly reduced when cells were treated with enzymes of Hase and ChABC | inhibition of rhinovirus A16 in H1-Hela cells (rhinovirus A16): did not show antiviral activity against rhinovirus A16

— PMC12326976 (Antimicrobial Agents and Chemotherapy, 2025)
